For orientation: inhibition means the percentage by which the read-out fell short of the control. One may read the IC50 as the concentration that inhibits the measured activity by half.

Format in all cases: biochemical
The target of one experiment is T1, recombinant rat PAI-1 (Rattus norvegicus, UniProt P20961).
T1 construct: purchased Molecular Innovations, Inc
T1 sequence (P20961 24-402): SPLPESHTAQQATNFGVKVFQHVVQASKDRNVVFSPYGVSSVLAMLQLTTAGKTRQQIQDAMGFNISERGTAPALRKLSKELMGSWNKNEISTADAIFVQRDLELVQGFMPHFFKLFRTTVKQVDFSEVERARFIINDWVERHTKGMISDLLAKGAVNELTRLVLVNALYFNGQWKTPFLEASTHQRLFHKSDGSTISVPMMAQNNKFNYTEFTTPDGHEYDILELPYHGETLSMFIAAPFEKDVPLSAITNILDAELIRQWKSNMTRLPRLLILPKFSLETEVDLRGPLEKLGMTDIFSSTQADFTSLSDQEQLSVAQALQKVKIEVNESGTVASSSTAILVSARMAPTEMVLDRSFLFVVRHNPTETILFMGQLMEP
Put plainly: Test Example 3: rat PAI-1 inhibitory activity (as Test Example 2 with rat PAI-1). As to conditions: for inhibition at 10 µM: read-out: Inhibition Rate of PAI-1 Activity (%); for Inhibition Rate of PAI-1 Activity (%) / IC50: rat PAI-1; for IC50: calculated from the inhibition rates.

In experiment [1] the target is T2, recombinant human PAI-1 (Homo sapiens, UniProt P05121).
T2 construct: purchased Molecular Innovations, Inc
T2 sequence (P05121 24-402): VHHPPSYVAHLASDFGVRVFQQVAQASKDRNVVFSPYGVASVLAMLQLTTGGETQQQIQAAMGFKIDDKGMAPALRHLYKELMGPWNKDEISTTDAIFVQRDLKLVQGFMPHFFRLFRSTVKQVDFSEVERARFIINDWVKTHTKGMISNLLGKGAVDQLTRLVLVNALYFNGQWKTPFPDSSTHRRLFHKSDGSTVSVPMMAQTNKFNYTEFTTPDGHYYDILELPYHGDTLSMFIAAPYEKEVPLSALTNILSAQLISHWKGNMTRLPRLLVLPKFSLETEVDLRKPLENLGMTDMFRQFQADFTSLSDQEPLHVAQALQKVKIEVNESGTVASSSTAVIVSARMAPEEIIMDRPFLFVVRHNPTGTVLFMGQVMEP
The experiment in a line: Test Example 1: human PAI-1 inhibitory activity (tPA fluorogenic substrate, pH 7.5 Tris buffer). Conditions: for Inhibition Rate of PAI-1 Activity (%): Tris buffer; for inhibition at 25 µM: read-out: Inhibition Rate of PAI-1 Activity (%). As for the experimental part: 50 mM Tris, 150 mM NaCl, 10 μg/ml BSA, 0.01% Tween80 (SIGMA-ALDRICH Corporation)

The target in experiment [2] is T2, recombinant human PAI-1. Put plainly: Test Example 2: human PAI-1 inhibitory activity (tPA fluorogenic substrate, pH 7.4 HEPES buffer). As to conditions: for Inhibition Rate of PAI-1 Activity (%): HEPES buffer; for IC50: human PAI-1, calculated from the inhibition rates; for inhibition at 3 µM: read-out: Inhibition Rate of PAI-1 Activity (%). As for the experimental part: 0.1 M HEPES, 0.1 M NaCl. 1 mM EDTA. 0.1% Polyethylene glycol 8,000 (Hampton Research Corporation),
2 mM Dimethyldecylphoshine oxide [Apo-10] (Fluka Corporation)

Procedure for recombinant rat PAI-1: To this solution, 6 μl of 80 nM recombinant human PAI-1 (Molecular Innovations, Inc.) solution prepared with Tris buffer was added, and the plate was incubated for 5 minutes at room temperature. Furthermore, 30 μl of 800 IU/ml two-chain tPA (Activity Standard; American diagnostica, inc.) prepared with Tris buffer was added, and the mixed solution was incubated for 15 minutes at room temperature. Then, 30 μl of 400 μM fluorogenic substrate (Pyr-Gly-Arg-MCA; Peptide Institute, Inc.) for tPA prepared with Tris buffer was added and reacted for 30 minutes at room temperature.

As for `CC(C)(C)c1ccc(Oc2ccc(-c3ccc(OC(F)(F)F)cc3)cc2CCC(=O)O)cc1` [Compound 13], on recombinant rat PAI-1, the inhibition at 10 µM is > 99%.
For the compound `CCCCc1ccc(COc2ccc(-c3ccc(OC(F)(F)F)cc3)cc2CCC(=O)O)cc1` [Compound 30], the “Inhibition Rate of PAI-1 Activity (%)” value was 29% on recombinant human PAI-1 [1] (Compound Concentration 5 μM); 70% on recombinant human PAI-1 [1] (Compound Concentration 10 μM); >99% on recombinant human PAI-1 [1] (Compound Concentration 25 μM); 0% at recombinant human PAI-1 [2] (Compound Concentration 0.1 μM); 5% at recombinant human PAI-1 [2] (Compound Concentration 0.3 μM); 25% on recombinant human PAI-1 [2] (Compound Concentration 1 μM). Besides, the “Inhibition Rate of PAI-1 Activity (%)” value on recombinant human PAI-1 [2] (Compound Concentration 3 μM) is 92%; on recombinant rat PAI-1 (compound concentration 0.3 μM) it was 0%; at recombinant rat PAI-1 (compound concentration 1 μM), 5%; at recombinant rat PAI-1 (compound concentration 3 μM), 47%; at recombinant rat PAI-1 (compound concentration 10 μM), 89%.
Turning to `CC(C)c1ccc(Oc2ccc(CCC(=O)O)c(Oc3ccc(C(C)C)cc3)c2)cc1` [Compound 73], on recombinant human PAI-1 [1], the inhibition at 25 µM is > 99%. Also, the values for the half-maximal inhibitory concentration (IC50) at recombinant human PAI-1 [2] and on recombinant rat PAI-1 were 1270 nM and 2100 nM, respectively.
As for `CC(C)(C)c1ccc(COc2cc(-c3ccc(OC(F)(F)F)cc3)ccc2CCC(=O)O)cc1` [Compound 76], the figures for the IC50 on recombinant human PAI-1 [2] and at recombinant rat PAI-1 were 1160 nM and 2880 nM, respectively.
For `CC(C)(C)c1ccc(COc2cc(Oc3ccc(OC(F)(F)F)cc3)ccc2CCC(=O)O)cc1` [Compound 78] the same measures were 1380 nM and 2330 nM.
Taken in the same sequence, the figures for `CC(C)(C)c1ccc(Oc2cc(-c3ccc(OC(F)(F)F)cc3)ccc2CCC(=O)O)cc1` [Compound 80] were 1060 nM and 2200 nM.
Turning to `CC(C)(C)c1ccc(COc2cccc(Oc3ccc(OC(F)(F)F)cc3)c2CCC(=O)O)cc1` [Compound 86], the IC50 was 1540 nM on recombinant human PAI-1 [2] and 5210 nM at recombinant rat PAI-1.
On to `CC(C)(C)c1ccc(COc2c(CCC(=O)O)cccc2-c2ccc(OC(F)(F)F)cc2)cc1` [Compound 88], for which the IC50 at recombinant human PAI-1 [2] is 1310 nM; on recombinant rat PAI-1, 3240 nM.
For `CC(C)(C)c1ccc(Oc2cc(Oc3ccc(OC(F)(F)F)cc3)ccc2CCC(=O)O)cc1` [Compound 90] the same measures were 1350 nM and 2650 nM.
For `CC(C)(C)c1ccc(Oc2cccc(-c3ccc(OC(F)(F)F)cc3)c2CCC(=O)O)cc1` [Compound 94] the same measures were 1340 nM and 3180 nM.
For `CC(C)(C)c1ccc(COc2ccc(Oc3ccc(OC(F)(F)F)cc3)cc2CCC(=O)O)cc1` [Compound 96] the same measures were 1330 nM and 2900 nM.
Take `O=C(O)CCc1c(Oc2ccc(OC(F)(F)F)cc2)cccc1Oc1ccc(OC(F)(F)F)cc1` [Compound 98]: the IC50 at recombinant human PAI-1 [2] is 1540 nM; on recombinant rat PAI-1, 3530 nM.
Turning to `CC(C)(C)c1ccc(Oc2ccc(Oc3ccc(OC(F)(F)F)cc3)cc2CCC(=O)O)cc1` [Compound 100], the half-maximal inhibitory concentration (IC50) at recombinant human PAI-1 [2] was 1340 nM; at recombinant rat PAI-1, 2300 nM.
`CC(C)(C)c1ccc(COc2ccc(-c3ccc(OC(F)(F)F)cc3)cc2OCC(=O)O)cc1` [Compound 105]: on recombinant human PAI-1 [1], the inhibition at 25 µM was > 99%. Besides, the IC50 was 1070 nM at recombinant human PAI-1 [2] and 2190 nM at recombinant rat PAI-1.
Turning to `CC(C)(Oc1cc(-c2ccc(OC(F)(F)F)cc2)ccc1OCc1ccc(C(C)(C)C)cc1)C(=O)O` [Compound 106], the IC50 at recombinant human PAI-1 [2] is 1150 nM. In addition, on recombinant rat PAI-1, the IC50 was 1710 nM and the inhibition at 10 µM is > 99%.
On to `CC(C)(C)c1ccc(Oc2cc(-c3ccc(OC(F)(F)F)cc3)ccc2OCC(=O)O)cc1` [Compound 112], for which the IC50 is 790 nM on recombinant human PAI-1 [2] and 1980 nM on recombinant rat PAI-1.
`CC(C)(C)c1ccc(Oc2cccc(-c3ccc(OC(F)(F)F)cc3)c2OCC(=O)O)cc1` [Compound 113]: the IC50 on recombinant human PAI-1 [2] is 1750 nM; at recombinant rat PAI-1, 3680 nM.
Regarding `CC(C)(Oc1cc(-c2ccc(OC(F)(F)F)cc2)ccc1OCCCCc1ccccc1)C(=O)O` [Compound 116], the figures for the IC50 at recombinant human PAI-1 [2] and on recombinant rat PAI-1 were 1650 nM and 3240 nM, respectively.
`CC(C)(C)c1ccc(COc2c(OCC(=O)O)cccc2-c2ccc(OC(F)(F)F)cc2)cc1` [Compound 117]: at recombinant human PAI-1 [2], the concentration for half-maximal inhibition (IC50) is 1040 nM and the inhibition at 3 µM is > 99%. The IC50 on recombinant rat PAI-1 is 2480 nM.
For the compound `CC(C)(Oc1cccc(-c2ccc(OC(F)(F)F)cc2)c1OCc1ccc(C(C)(C)C)cc1)C(=O)O` [Compound 118], at recombinant human PAI-1 [2], the IC50 is 1010 nM and the inhibition at 3 µM is > 99%. Further, the IC50 at recombinant rat PAI-1 was 1920 nM.
On to `CC(C)Oc1ccc(N(Cc2ccc(C(C)(C)C)cc2)C(=O)C(=O)O)cc1-c1ccc(OC(F)(F)F)cc1` [Compound 211], for which the “Inhibition Rate of PAI-1 Activity (%)” value worked out at 87% at recombinant human PAI-1 [1] (Compound Concentration 5 μM); 96% on recombinant human PAI-1 [1] (Compound Concentration 10 μM); 9% at recombinant human PAI-1 [2] (Compound Concentration 0.1 μM); 16% at recombinant human PAI-1 [2] (Compound Concentration 0.3 μM); 43% at recombinant human PAI-1 [2] (Compound Concentration 1 μM); 96% on recombinant human PAI-1 [2] (Compound Concentration 3 μM). Besides, the “Inhibition Rate of PAI-1 Activity (%)” value at recombinant rat PAI-1 (compound concentration 0.3 μM) was 4%; on recombinant rat PAI-1 (compound concentration 1 μM) it was 17%; on recombinant rat PAI-1 (compound concentration 3 μM), 78%; on recombinant rat PAI-1 (compound concentration 10 μM) it was 87%.
Regarding `CC(C)(C)c1ccc(CN(C(=O)C(=O)O)c2ccc(OCc3ccccc3)c(-c3ccc(OC(F)(F)F)cc3)c2)cc1` [Compound 212], the “Inhibition Rate of PAI-1 Activity (%)” value on recombinant human PAI-1 [1] (Compound Concentration 5 μM) came to 78%; on recombinant human PAI-1 [1] (Compound Concentration 10 μM) it was 95%; at recombinant human PAI-1 [2] (Compound Concentration 0.1 μM) it was 5%; on recombinant human PAI-1 [2] (Compound Concentration 0.3 μM), 15%; on recombinant human PAI-1 [2] (Compound Concentration 1 μM), 64%; on recombinant human PAI-1 [2] (Compound Concentration 3 μM), 98%. In addition, the “Inhibition Rate of PAI-1 Activity (%)” value at recombinant rat PAI-1 (compound concentration 0.3 μM) amounted to 8%; at recombinant rat PAI-1 (compound concentration 1 μM), 40%; on recombinant rat PAI-1 (compound concentration 3 μM), 73%; on recombinant rat PAI-1 (compound concentration 10 μM) it was 67%.
With `CCN(CC)c1ccc(N(Cc2ccc(C(C)(C)C)cc2)C(=O)C(=O)O)cc1-c1ccc(OC(F)(F)F)cc1` [Compound 213], the “Inhibition Rate of PAI-1 Activity (%)” value on recombinant human PAI-1 [1] (Compound Concentration 5 μM) is listed as 93%; at recombinant human PAI-1 [1] (Compound Concentration 10 μM) it was 84%; on recombinant human PAI-1 [2] (Compound Concentration 0.1 μM), 0%; on recombinant human PAI-1 [2] (Compound Concentration 0.3 μM), 10%; at recombinant human PAI-1 [2] (Compound Concentration 1 μM) it was 48%; on recombinant human PAI-1 [2] (Compound Concentration 3 μM), 98%. The “Inhibition Rate of PAI-1 Activity (%)” value is 8% on recombinant rat PAI-1 (compound concentration 0.3 μM), 26% at recombinant rat PAI-1 (compound concentration 1 μM), 90% on recombinant rat PAI-1 (compound concentration 3 μM) and 78% at recombinant rat PAI-1 (compound concentration 10 μM).
`CN(C)c1ccc(N(Cc2ccc(C(C)(C)C)cc2)C(=O)C(=O)O)cc1-c1ccc(OC(F)(F)F)cc1` [Compound 214]: the “Inhibition Rate of PAI-1 Activity (%)” value on recombinant human PAI-1 [1] (Compound Concentration 5 μM) was found to be 87%; on recombinant human PAI-1 [1] (Compound Concentration 10 μM) it was 93%; at recombinant human PAI-1 [2] (Compound Concentration 0.1 μM), 4%; at recombinant human PAI-1 [2] (Compound Concentration 0.3 μM), 2%; on recombinant human PAI-1 [2] (Compound Concentration 1 μM) it was 40%; on recombinant human PAI-1 [2] (Compound Concentration 3 μM), 96%. Besides, the “Inhibition Rate of PAI-1 Activity (%)” value at recombinant rat PAI-1 (compound concentration 0.3 μM) is 0%; on recombinant rat PAI-1 (compound concentration 1 μM), 8%; at recombinant rat PAI-1 (compound concentration 3 μM), 77%; at recombinant rat PAI-1 (compound concentration 10 μM), 97%.
Consider `CCCCC(c1ccc(C(C)(C)C)cc1)N(C(=O)C(=O)O)c1ccc(-c2ccc(OC(F)(F)F)cc2)cc1` (stereo not drawn) [Compound 221], for which, on recombinant human PAI-1 [2], the half-inhibitory concentration (IC50) was 930 nM and the inhibition at 3 µM is > 99%. Moreover, the IC50 on recombinant rat PAI-1 is 1270 nM.
As for `CC(C)(C)c1ccc(C(c2ccccc2)N(C(=O)C(=O)O)c2ccc(-c3ccc(OC(F)(F)F)cc3)cc2)cc1` (stereo not drawn) [Compound 222], on recombinant human PAI-1 [2], the IC50 was 1060 nM and the inhibition at 3 µM was > 99%. In addition, the IC50 on recombinant rat PAI-1 is 1340 nM.
Consider `CCCCCOc1ccc(-c2ccc(OC(F)(F)F)cc2)cc1N(CCCCc1ccccc1)C(=O)C(=O)O` [Compound 226], for which the IC50 on recombinant human PAI-1 [2] was 510 nM. Besides, on recombinant rat PAI-1, the 50% inhibitory concentration (IC50) was 1000 nM and the inhibition at 10 µM was > 99%.
Consider `CCCCOc1ccc(N(CCCCc2ccccc2)C(=O)C(=O)O)cc1-c1ccc(OC(F)(F)F)cc1` [Compound 227], for which the IC50 on recombinant human PAI-1 [2] was 1110 nM; on recombinant rat PAI-1 it was 1950 nM.
Taken in the same sequence, the figures for `CCC(CC)Oc1ccc(N(CCCc2ccccc2)C(=O)C(=O)O)cc1-c1ccc(OC(F)(F)F)cc1` [Compound 230] were 1320 nM and 1830 nM.
For `CCCCOc1ccc(-c2ccc(OC(F)(F)F)cc2)cc1N(CCCCc1ccccc1)C(=O)C(=O)O` [Compound 231], the IC50 at recombinant human PAI-1 [2] is 1190 nM. For the same compound, at recombinant rat PAI-1, the half-inhibitory concentration (IC50) was 1570 nM and the inhibition at 10 µM was > 99%.
As to `CCN(CC)c1ccc(N(CCCc2ccccc2)C(=O)C(=O)O)c(-c2ccc(OC(F)(F)F)cc2)c1` [Compound 238], the concentration for half-maximal inhibition (IC50) is 1570 nM on recombinant human PAI-1 [2] and 3140 nM on recombinant rat PAI-1.

Values taken from patent publication US8633245B2, “PAI-1 inhibitor” (Institute of Medicinal Molecular Design, Inc., priority 2008, dated 2014).
